Patent US20250000907A1, “ENGINEERED IMMUNE CELLS WITH REDUCED SIRT6 EXPRESSION” (H. LEE MOFFITT CANCER CENTER AND RESEARCH INSTITUTE, INC., priority 2021, published 2025)

How the values were obtained:
Type in all cases: cell-based, mouse
[1] = tested on: OT-II and Pmel T cells; test: CFSE proliferation assay; conditions: upon antigenic stimulation ex vivo, 3 days, FIG. 7A
Method: Pmel cells and OT-II cells were first labelled with 5 μM of CellTrace™ carboxyl fluorescein succinimidyl ester (CFSE, Thermo Fisher Scientific) for 30 min at room temperature (RT) and then stimulated with gp100 or remained non-stimulated with and without Sirt6 inhibitor (OSS) for 3 days.

[2] = tested on: activated CD3+ T cells; test: Seahorse extracellular flux analysis (ECAR/OCR) of activated CD3+ T cells
Method: Spleens and/or lymph nodes (LN) were collected from C57BL/6J, Pmel and OT-II mice and were processed into single-cell suspensions. CD3+, CD4+ and CD8+ T cells were negatively enriched using Mouse Pan T cell, CD4^+ T cell and CD8^+ T Cell Isolation Kits™, respectively according to the manufacturer's instructions. The purity of the isolated cells was confirmed by flow cytometry (>95%). Purified T cells were cultured in complete RPMI 1640 medium (Thermo Fisher Scientific) supplemented with 10% (vol/vol) fetal bovine serum (FBS, Biowest) and 1% (vol/vol) penicillin/streptomycin (P/S, Thomas Scientific Inc.). T cells were activated with plate-bound anti-CD3 antibody (5 μg/ml, 145-2C11, BioXCell) for the indicated time periods. […]
Extracellular acidification rate (ECAR) and oxygen consumption rate (OCR) were measured using the Seahorse XF analyzer (Agilent technologies). […] For GST, ECAR and OCR were measured under basal conditions and in response to 10 mM glucose, 1 μM oligomycin and 50 mM 2-DG successively to calculate basal glycolytic rate, glycolytic capacity (in response to oligomycin), and glycolytic reserve (glycolytic capacity-basal rate). […] Results were normalized to total protein quantified using Pierce™ BCA Protein Assay Kit (Thermo Fisher Scientific).

[3] = tested on: B16F10 cells; test: LDH release cytotoxic assay of Pmel T cells against B16F10 cells; conditions: Pmel T cells ex vivo, OSS vs. DMSO, FIG. 7D
Method: Evaluation of functional cytotoxic activity was performed using Pierce™ LDH Cytotoxicity Assay Kit (Thermo Fisher Scientific) according to the manufacturer's protocol. B16F10 cells or human NSCLC autologous tumor cells were used as target cells. Mouse CD8+ enriched T cells from gp100-stimulated Pmel splenocytes or human NSCLC TILs were used as effector cells. Target tumor cells were co-cultured with effector cells in 96-well round-bottom microplates at the indicated effector:target ratios with and without Sirt6 inhibitor. After 6 hr, the percentage of specific LDH release was calculated according to the following formula: % cell lysis=(experimental value−effector cells spontaneous release−target cells spontaneous release)×100/(target cells maximum release−target cells spontaneous release), where “experimental” corresponds to the experimental signal value, “effector spontaneous” to spontaneous release of LDH from effector cells alone, “target spontaneous” to spontaneous release of LDH from target cells alone and “maximum release” to the maximum release of LDH from target cells in medium containing 1% Triton X-100.

[4] = tested on: stimulated CD8+ T cells from WT vs. Sirt2−/− Pmel mice; test: IFN-γ ELISPOT assay of stimulated CD8+ T cells from WT vs. Sirt2−/− Pmel mice; conditions: FIG. 3C
Method: FIG. 3: Sirtuins in the immune system. A, WB of Sirt1-3,5-7 expression in activated CD3+ T cells from WT vs. Sirt2−/− mice. ECAR measured by Seahorse analyzer (B) and IFN-γ ELISPOT assay (C) in stimulated CD8+ T cells from WT vs. Sirt2−/− Pmel mice treated with vehicle (Ctl), or Sirt6 inhibitor (Sirt6i). *P<0.05, **P<0.01, ****P<0.0001.
The number of IFN-γ producing cells was evaluated in an ELISPOT assay. Briefly, mouse TILs were plated at 1×10^5 cells and co-cultured with 1×10^3 irradiated B16F10 tumor cells (50 Gray) in the presence of the indicated concentrations of OSS, in a 96-well nitrocellulose flat-bottomed plate (ELISPOT plate, Millipore) pre-coated with an anti-mouse IFN-γ antibody (AN-18, Mabtech, Inc.) and incubated for 48 hr at 37° C. For Pmel T cells, splenocytes were first stimulated with gp100 (1 μg/ml, Anaspec) for 48 hr in the presence of the indicated concentrations of OSS and then transferred to the ELISPOT plate pre-coated with an anti-mouse IFN-γ antibody (AN-18, Mabtech, Inc.) for an additional 48 hr. […] After washing steps and successive biotinylated anti-IFN-γ antibody (R4-6A2, Mabtech, Inc.) and Streptavidin-HRP (BD Bioscience) labeling, spots were detected using AEC Substrate Kit (BD Biosciences) and counted using an AID ELISPOT Reader System (Autoimmun Diagnostika GmbH).

[5] = tested on: activated CD3+ T cells; test: RT-PCR mRNA levels in activated T cells
Excerpt: Total RNA was extracted using the RNeasy Mini Kit (Qiagen; cat. #74106) and reverse transcribed using iScript™ (Biorad). cDNAs were amplified using the “SsoAdvanced™ Universal SYBR® Green Supermix” kit (Biorad) in the CFX Connect™ Real-Time System (Biorad). Sense and antisense primers used were for mouse Sirt6, GLUT1, HK, PFK, LDH, GLS and ASCT2 (primers designed by Biorad and provided as a mixture, PrimePCR™ SYBR® Green Assay).

[6] = activated CD3+ T cells, FIG. 8K

SMILES: O=C(Nc1ccc(O)c(C(=O)O)c1)c1cccc(NC(=O)c2ccco2)c1 [OSS_128167]
- proliferation (CFSE dilution) [1]: increased
- glycolytic flux (ECAR) ([2]; CD3-stimulated CD3+ T cells, OSS 25 μM or 50 μM vs. vehicle (DMSO), FIG. 6A): profoundly increased
- SRC in response to the mitochondrial decoupling agent (FCCP) (OCR) ([2]; activated T cells, pharmacologic inhibition, FIG. 6G): increase
- cytotoxic activity against B16F10 cell challenge [3]: superior cytotoxic activity
- effect on effector function (IFN-γ ELISPOT) with Sirt2 deficiency ([4]; Sirt2−/− Pmel CD8+ T cells): potentiated
- effector function of T cells (IFN-γ ELISPOT) ([4]; activated T cells, Sirt6i vs. vehicle): increases
- mRNA expression levels of glutaminase (GLS) [5, 6]: increased
- mRNA expression levels of glutamine transporter (ASCT2) [5, 6]: increased
- mRNA expression levels of glucose transporter (Glut1) ([5]; activated T cells, FIG. 8G): increased
- mRNA expression levels of hexokinase (HK1) ([5]; activated T cells, FIG. 8G): increased
- mRNA expression levels of lactate dehydrogenase A (LDHA) ([5]; activated T cells, FIG. 8G): increased
- mRNA expression levels of phosphofructokinase P (PFKP) ([5]; activated T cells, FIG. 8G): increased
